Experimental data reported in ChEMBL document CHEMBL5550134, “An insight into the pharmacology of cysteine/methionine containing peptide drugs” (Eur J Med Chem, 2024).
Numbered stars: 1 amine (or outer) side, 2 acyl side, 3 side chain; on linkers, the order of the positions; unused ones are H or OH. Bridge positions count the residues as written; N and C are the ends. Square brackets hold non-standard residues; d marks the D form. Peptide text beside a SMILES is read from it. * marks the point of attachment. 2Nal = N[C@@H](Cc1ccc2ccccc2c1)C(=O)O; Benzoyl(4-F) = O=C(c1ccc(F)cc1)*; Cit = NC(=O)NCCC[C@H](N)C(=O)O; X1 = O=C(CCC[*:2])[*:1]

Key:
[1] = Half life in human; format: ADME
[2] = Plasma protein binding in human; format: ADME, cell-free; conditions: read-out: PPB (converted)
[3] = Half life in human plasma; format: ADME, cell-free
[4] = Half life in iv dosed human; format: ADME, organism-based; conditions: in vivo
[5] = Subcutaneous bioavailability in human; conditions: in vivo, sc
[6] = Half life in human at 0.5 mg/kg, iv; format: ADME, organism-based; conditions: in vivo
[7] = Terminal half life in human; format: ADME; conditions: read-out: beta t1/2 (converted)
[8] = Plasma protein binding in human at 0.2 ug/ml; format: ADME, cell-free; conditions: at 0.2 µg/mL, read-out: PPB
[9] = Terminal elimination half life in human; format: ADME
[10] = Half life in human at 0.3 mg/kg, iv; format: ADME, organism-based; conditions: in vivo
[11] = Oral bioavailability in human; format: ADME, organism-based; conditions: in vivo

Compound: CC[C@H](C)[C@H](NC(=O)[C@H](CO)NC(=O)[C@H](CC(N)=O)NC(=O)[C@H](CC(C)C)NC(=O)[C@H](Cc1ccc(O)cc1)NC(=O)[C@H](CCCCN)NC(=O)[C@H](CCCCN)NC(=O)[C@@H](NC(=O)[C@H](C)NC(=O)[C@H](CCSC)NC(=O)[C@H](CCC(N)=O)NC(=O)[C@H](CCCCN)NC(=O)[C@H](CCCN=C(N)N)NC(=O)[C@H](CC(C)C)NC(=O)[C@H](CCCN=C(N)N)NC(=O)[C@@H](NC(=O)[C@H](Cc1ccc(O)cc1)NC(=O)[C@H](CC(N)=O)NC(=O)[C@H](CC(=O)O)NC(=O)[C@@H](NC(=O)[C@H](Cc1ccccc1)NC(=O)[C@@H](NC(=O)[C@H](C)NC(=O)[C@H](CC(=O)O)NC(=O)[C@H](CO)NC(=O)[C@@H](N)Cc1c[nH]cn1)C(C)C)[C@@H](C)O)[C@@H](C)O)C(C)C)C(=O)N[C@@H](CC(C)C)C(=O)N[C@@H](CC(N)=O)C(N)=O
- half-life [1]: 0.0167 h

Compound: N=C(N)NCCC[C@H](NC(=O)[C@@H]1CSSC[C@H](NC(=O)[C@H](Cc2ccc3ccccc3c2)NC(=O)[C@H](CCCNC(=N)N)NC(=O)[C@H](CCCNC(=N)N)NC(=O)c2ccc(F)cc2)C(=O)N[C@@H](Cc2ccc(O)cc2)C(=O)N[C@@H](CCCNC(N)=O)C(=O)N[C@@H](CCCCN)C(=O)N[C@@H](CCCCN)C(=O)N2CCC[C@H]2C(=O)N[C@@H](Cc2ccc(O)cc2)C(=O)N[C@@H](CCCNC(=N)N)C(=O)N[C@@H](CCCNC(N)=O)C(=O)N1)C(N)=O ({Benzoyl(4-F)}-RR[2Nal]CY[Cit]KKPYR[Cit]CR-NH2; disulfide 4-13)
- fraction unbound [2]: < 0.01
- half-life [1]: 2 h

Compound: CC[C@H](C)[C@@H]1NC(=O)[C@H](Cc2ccc(OC)cc2)NC(=O)CCCSC[C@@H](C(=O)N2CCC[C@H]2C(=O)N[C@@H](CC(C)C)C(=O)NCC(N)=O)NC(=O)[C@H](CC(N)=O)NC(=O)[C@H](CCC(N)=O)NC1=O [CARBETOCIN] (Y(Me)IQNCPLG-NH2; linker N-5 via X1)
- half-life [3]: 0.667 h

Compound: CC(=O)N[C@H](CSSC[C@H](N)C(=O)O)C(=O)N[C@H](C)C(=O)N[C@H](CCCNC(=N)N)C(=O)N[C@H](CCCNC(=N)N)C(=O)N[C@H](CCCNC(=N)N)C(=O)N[C@H](C)C(=O)N[C@H](CCCNC(=N)N)C(N)=O [ETELCALCETIDE]
- half-life [4]: 72 h

Compound: NC(N)=NCCC[C@@H](N)C(=O)N[C@@H](CCCN=C(N)N)C(=O)N1CCC[C@H]1C(=O)N1C[C@H](O)C[C@H]1C(=O)NCC(=O)N[C@@H](Cc1cccs1)C(=O)N[C@@H](CO)C(=O)N1Cc2ccccc2C[C@@H]1C(=O)N1[C@H](C(=O)N[C@@H](CCCN=C(N)N)C(=O)O)C[C@@H]2CCCC[C@@H]21 [ICATIBANT]
- subcutaneous bioavailability [5]: 97%
- half-life [1]: 1.4 h

Compound: C/C=C1\NC(=O)[C@H]2CSSCC/C=C/[C@H](CC(=O)N[C@H](C(C)C)C(=O)N2)OC(=O)[C@H](C(C)C)NC1=O [ROMIDEPSIN]
- half-life [6]: 3 h

Compound: CC(=O)N[C@@H](CCCNC(=N)N)C(=O)N[C@H]1CSSC[C@@H](C(N)=O)NC(=O)[C@H](Cc2c[nH]c3ccccc23)NC(=O)[C@H](CCCNC(=N)N)NC(=O)[C@@H](Cc2ccccc2)NC(=O)[C@H](Cc2c[nH]cn2)NC(=O)[C@@H](C)NC1=O [SETMELANOTIDE]
- fraction unbound [2]: 0.209
- half-life [1]: 11 h

Compound: CC[C@H](C)[C@H](NC(=O)[C@H](Cc1ccccc1)NC(=O)[C@H](CC(=O)O)NC(=O)[C@H](CCCNC(=N)N)NC(=O)[C@H](C)NC(=O)[C@H](C)NC(=O)[C@H](CC(C)C)NC(=O)[C@H](CC(N)=O)NC(=O)[C@H](CC(=O)O)NC(=O)[C@H](CC(C)C)NC(=O)[C@@H](NC(=O)[C@@H](NC(=O)[C@H](CC(N)=O)NC(=O)[C@H](CCSC)NC(=O)[C@H](CCC(=O)O)NC(=O)[C@H](CC(=O)O)NC(=O)[C@H](CO)NC(=O)[C@H](Cc1ccccc1)NC(=O)[C@H](CO)NC(=O)CNC(=O)[C@H](CC(=O)O)NC(=O)CNC(=O)[C@@H](N)Cc1c[nH]cn1)[C@@H](C)O)[C@@H](C)CC)C(=O)N[C@@H](CC(N)=O)C(=O)N[C@@H](Cc1c[nH]c2ccccc12)C(=O)N[C@@H](CC(C)C)C(=O)N[C@H](C(=O)N[C@@H](CCC(N)=O)C(=O)N[C@H](C(=O)N[C@@H](CCCCN)C(=O)N[C@H](C(=O)N[C@H](C(=O)N[C@@H](CC(=O)O)C(=O)O)[C@@H](C)O)[C@@H](C)CC)[C@@H](C)O)[C@@H](C)CC [TEDUGLUTIDE]
- half-life [7]: 1.3 h
- subcutaneous bioavailability [5]: 88%

Compound: CC[C@H](C)[C@H](NC(=O)[C@H](CCC(=O)O)NC(=O)[C@H](CO)NC(=O)[C@@H](NC(=O)[C@@H](N)CO)C(C)C)C(=O)N[C@@H](CCC(N)=O)C(=O)N[C@@H](CC(C)C)C(=O)N[C@@H](CCSC)C(=O)N[C@@H](Cc1cnc[nH]1)C(=O)N[C@@H](CC(N)=O)C(=O)N[C@@H](CC(C)C)C(=O)NCC(=O)N[C@@H](CCCCN)C(=O)N[C@@H](Cc1cnc[nH]1)C(=O)N[C@@H](CC(C)C)C(=O)N[C@@H](CC(N)=O)C(=O)N[C@@H](CO)C(=O)N[C@@H](CCSC)C(=O)N[C@@H](CCC(=O)O)C(=O)N[C@@H](CCCN=C(N)N)C(=O)N[C@H](C(=O)N[C@@H](CCC(=O)O)C(=O)N[C@@H](Cc1c[nH]c2ccccc12)C(=O)N[C@@H](CC(C)C)C(=O)N[C@@H](CCCN=C(N)N)C(=O)N[C@@H](CCCCN)C(=O)N[C@@H](CCCCN)C(=O)N[C@@H](CC(C)C)C(=O)N[C@@H](CCC(N)=O)C(=O)N[C@@H](CC(=O)O)C(=O)N[C@H](C(=O)N[C@@H](Cc1cnc[nH]1)C(=O)N[C@@H](CC(N)=O)C(=O)N[C@@H](Cc1ccccc1)C(=O)O)C(C)C)C(C)C [TERIPARATIDE]
- subcutaneous bioavailability [5]: 95%
- half-life [1]: 1 h

Compound: NCCCC[C@H](NC(=O)[C@@H]1CCCN1C(=O)[C@@H]1CSSC[C@H](NC(=O)CNC(=O)CNC(=O)CN)C(=O)N[C@@H](Cc2ccc(O)cc2)C(=O)N[C@@H](Cc2ccccc2)C(=O)N[C@@H](CCC(N)=O)C(=O)N[C@@H](CC(N)=O)C(=O)N1)C(=O)NCC(N)=O [TERLIPRESSIN]
- half-life [7]: 0.9 h

Compound: CSCC[C@@H]1NC(=O)[C@H](CC(C)C)NC(=O)[C@H](CCCNC(=N)N)NC(=O)[C@H](CO)NC(=O)[C@@H]2CSSC[C@@H]3NC(=O)[C@H](CO)NC(=O)CNC(=O)[C@H]([C@@H](C)O)NC(=O)[C@H](CSSC[C@H](N)C(=O)N[C@@H](CCCCN)C(=O)NCC(=O)N[C@@H](CCCCN)C(=O)NCC(=O)N[C@@H](C)C(=O)N[C@@H](CCCCN)C(=O)N2)NC(=O)[C@H](CSSC[C@@H](C(N)=O)NC(=O)[C@H](CCCCN)NC(=O)CNC(=O)[C@H](CO)NC(=O)[C@H](CCCNC(=N)N)NC3=O)NC(=O)[C@H](CC(=O)O)NC(=O)[C@H](Cc2ccc(O)cc2)NC1=O [ZICONOTIDE]
- fraction unbound at 0.2 ug/ml [8]: 0.5

Compound: LIXISENATIDE
- beta t1/2 [9]: 3 h

Compound: NESIRITIDE
- t1/2 [10]: 0.3 h

Compound: TESAMORELIN
- F [11]: < 4%
- t1/2 [1]: 0.433 h

Compound: VOSORITIDE
- t1/2 [1]: 0.35 h
